Tests used:
Assay type in all cases: in vivo, Sprague Dawley rats
[1] = Body fat percentage by nuclear magnetic resonance body composition analyzer in high-fat diet rats; settings: HFD rats, FIG. 1
Method: Male Sprague Dawley rats aged 6-8 weeks were housed under a 12/12 h light/dark cycle at 22° C. and given free access to water and high-fat diet (HFD, 60% kcal from fat) for 12 weeks. After the 12 weeks, all rats were randomly divided into 3 groups of 8 animals. They were supplemented with or without DHB according to the following: • (1) non-supplement group (Con HFD only, Group 1); • (2) DHB supplement group (DHB+HFD, 100 mg/kg, Group 2); • (3) DHB supplement group (DHB+HFD, 200 mg/kg, Group 3). Before supplementing DHB, the muscle content of all rats was measured by nuclear magnetic resonance body composition analyzer. And then all rats were administered DHB before each major meal once daily by gavage (i.g.) in normal saline solution for 4 months. The muscle content of all rats was tested by nuclear magnetic resonance body composition analyzer every month. […] FIG. 1 is a graph of percentage of body fat of three groups of rats (Con; DHB 100 mg/kg; DHB 200 mg/kg) every month. […] Thus, DHB supplementation could achieve the beneficial effects on weight loss and increasing muscle mass.

[2] = tested on: glucose transporter type 4 (GLUT4); experiment: Insulin stimulating membrane translocation of GLUT4 in skeletal muscle by western blot; settings: HFD rats, DHB groups 100 and 200 mg/kg, especially higher dose; insulin 0.75 IU/kg i.p.; gastrocnemius muscle, FIG. 2
Method: (§1) Male Sprague Dawley rats aged 6-8 weeks were housed under a 12/12 h light/dark cycle at 22° C. and given free access to water and high-fat diet (HFD, 60% kcal from fat) for 12 weeks. After the 12 weeks, all rats were randomly divided into 3 groups of 8 animals. They were supplemented with or without DHB according to the following: • (1) non-supplement group (Con HFD only, Group 1); • (2) DHB supplement group (DHB+HFD, 100 mg/kg, Group 2); • (3) DHB supplement group (DHB+HFD, 200 mg/kg, Group 3).
Before the rats were sacrificed, half the rats in each group were injected with 0.75 IU/kg body weight insulin (i.p.) to activate glucose uptake and assess the insulin resistance in the skeletal muscle. […]
To assess that DHB could improve insulin resistance in the skeletal muscle, the insulin stimulating membrane translocation of glucose transporter type 4 (GLUT4) by the western blot analysis was measured and compared among the groups. […]
Western blot analysis: The concentration of protein in the gastrocnemius muscle was quantitated by piercing bicinchoninic acid (BCA), and 120 μg of total protein was electrophoresed on a 12% SDS polyacrylamide gel and electro-transferred onto Polyvinylidene difluoride (PVDF) membranes. […] The images were quantified using Image Analysis Software.

soleus muscles = experiment: HE staining of soleus, morphological changes of the skeletal muscle; settings: HFD rats, DHB supplementation groups, especially group 3 (200 mg/kg)
Method: as §1
(§2) Before the rats were sacrificed, half the rats in each group were injected with 0.75 IU/kg body weight insulin (i.p.) to activate glucose uptake and assess the insulin resistance in the skeletal muscle. Fifteen minutes later, all the rats were anesthetized with chloral hydrate; the soleus muscles were fixed in paraformaldehyde, and the gastrocnemius muscles were frozen immediately in liquid nitrogen and stored at −80° C. for protein-related experiments.
To evaluate the morphological changes of the skeletal muscle, HE staining of soleus was conducted. Hematoxylin-eosin (HE) staining: Soleus muscles were fixed in paraformaldehyde overnight, dehydrated in an ascending graded ethanol series, equilibrated with xylene, embedded in paraffin and sectioned into 5- to 10-μm slices. Then, the samples were dewaxed with xylene and a descending graded ethanol series. […]

ATP = ATP determination in serum and skeletal muscle (ELISA); settings: HFD rats
Method: Male Sprague Dawley rats aged 6-8 weeks were housed under a 12/12 h light/dark cycle at 22° C. and given free access to water and high-fat diet (HFD, 60% kcal from fat) for 12 weeks. After the 12 weeks, all rats were randomly divided into 3 groups of 8 animals. They were supplemented with or without DHB according to the following: • (1) non-supplement group (Con HFD only, Group 1); • (2) DHB supplement group (DHB+HFD, 100 mg/kg, Group 2); • (3) DHB supplement group (DHB+HFD, 200 mg/kg, Group 3). Based on the results of decreased fiber number and insulin resistance, the mitochondrial function in skeletal muscle might be also impaired. ATP and ROS levels in serum and skeletal muscle, which represented mitochondrial function, were further determined. ATP determination: The ATP concentration in the gastrocnemius muscle was measured using ELISA according to the manufacturer's instructions. Before the ELISA was tested, the gastrocnemius muscle lysates were first measured with a BCA protein assay kit, and the total protein concentration of each group was adjusted to the same by RIPA. The concentration of ATP was then calculated based on the absorption density determined at 450 nm.

ROS = experiment: Reactive oxygen species (ROS) test in serum and skeletal muscle; settings: HFD rats, DHB 100 and 200 mg/kg
Method: Male Sprague Dawley rats aged 6-8 weeks were housed under a 12/12 h light/dark cycle at 22° C. and given free access to water and high-fat diet (HFD, 60% kcal from fat) for 12 weeks. After the 12 weeks, all rats were randomly divided into 3 groups of 8 animals. They were supplemented with or without DHB according to the following: • (1) non-supplement group (Con HFD only, Group 1); • (2) DHB supplement group (DHB+HFD, 100 mg/kg, Group 2); • (3) DHB supplement group (DHB+HFD, 200 mg/kg, Group 3). Based on the results of decreased fiber number and insulin resistance, the mitochondrial function in skeletal muscle might be also impaired. ATP and ROS levels in serum and skeletal muscle, which represented mitochondrial function, were further determined. Reactive oxygen species (ROS) test: Ten microliters of skeletal muscle or lysate or 10 μl of serum was added to 127.5 μl of reaction buffer in 96-well plates (containing 30 mM HEPES (pH 7.2), 200 mM KCl, 1 mM MgCl2, and 7.5 μl of 2,2′-azobis(2-methylpropionamidine) dihydrochloride). The same volume of ultrapure water was pipetted into the plate as a blank. The microplate was put into a fluorescence microplate reader at 35° C. 10 μl of the fluorescent probe H2DCF-DA was added to each well for a final concentration of 40 μM immediately before reading, and the level of ROS was detected at 488 and 525 nm.

AMPK/SIRT1/PGC-1α = experiment: Western blot of AMPK/SIRT1/PGC-1α protein expression in muscle tissue; settings: HFD rats, skeletal muscle
Method: as §1, §2
Protein sample preparation: For total protein extraction, 100 mg of the frozen gastrocnemius muscle was homogenized in radioimmunoprecipitation assay (RIPA) buffer (containing 0.2 μg/mL PMSF and 10 μg/mL phosphatase inhibitor) for 30 min and then centrifuged at 3,500 rpm×15 min and 12,000 rpm×15 min. The supernatants were extracted for the western blot analysis.
Western blot analysis: The concentration of protein in the gastrocnemius muscle was quantitated by piercing bicinchoninic acid (BCA), and 120 μg of total protein was electrophoresed on a 12% SDS polyacrylamide gel and electro-transferred onto Polyvinylidene difluoride (PVDF) membranes. Membranes were blocked with 5% (w/v) BSA for 2 h at room temperature and then incubated with primary antibodies overnight at 4° C. with slight shaking. After being washed with TBST three times, the membranes were incubated with a secondary antibody (1:2000) at room temperature for 2 h. The protein bands were visualized by enhanced chemiluminescence with a GENE Imaging system. The images were quantified using Image Analysis Software.
Western blot was used to check the protein expression of AMPK/SIRT1/PGC-1α in the muscle tissue.

For `COc1ccc2c(c1OC)CN1CCc3cc4c(cc3C1=C2)OCO4` [DHB, dihydroberberine], the “reduction in body fat compared to control group” value ([1]; DHB 100 and 200 mg/kg i.g. once daily for 4 months) was “greater reduction in body fat”, the “decrease of percentage of body fat versus beginning of supplementation” value ([1]; higher dose group (200 mg/kg) i.g. once daily, 4 months) was “about 52%” and the “membrane translocation of GLUT4 after insulin stimulation relative to control group” value [2] was “remarkably increased”. For the same compound, the “number of muscle fibers compared with the control group” value (soleus muscles; FIG. 3a) was “increased dramatically”, the “relative cross-sectional area of the muscle fibers versus control group” value (soleus muscles; FIG. 3b) was “dropped below that of the control group” and the “production of ATP in serum relative to the control group” value (ATP; DHB 200 mg/kg, serum, FIG. 4a) was 1.6 fold. For the same compound, the “production of ATP in skeletal muscle relative to the control group” value (ATP; DHB 200 mg/kg, skeletal muscle, FIG. 4c) was 2.7 fold, the “production of ATP in serum” value (ATP; DHB treatment 100 and 200 mg/kg, serum, FIG. 4a) was “increased significantly” and the “production of ATP in skeletal muscle” value (ATP; DHB treatment 100 and 200 mg/kg, skeletal muscle, FIG. 4c) was “increased significantly”. The “ROS level in serum” value (ROS; serum, FIG. 4b) was “inhibit increased ROS effectively”, the “ROS level in skeletal muscle” value (ROS; skeletal muscle, FIG. 4d) was “inhibit increased ROS effectively” and the “total AMPK protein expression among the three groups” value (AMPK/SIRT1/PGC-1α; DHB 100 and 200 mg/kg vs control, GAPDH as internal reference, FIG. 4e) was “no significant difference”. The “protein expression of p-AMPK” value (AMPK/SIRT1/PGC-1α; DHB groups, especially group 3 (200 mg/kg), FIG. 4e) was “dramatically upregulated”, the “protein expression of SIRT1 relative to the control group” value (AMPK/SIRT1/PGC-1α; group 3 (DHB 200 mg/kg), FIG. 4f) was “approximately 1.9 fold” and the “protein expression of PGC-1α relative to the control group” value (AMPK/SIRT1/PGC-1α; group 3 (DHB 200 mg/kg), FIG. 4g) was roughly 2 fold.
